Laboratory results as given in patent US20240237661A1, “ANTIMICROBIAL SOLUTIONS AND USES THEREOF” (EcoPlanet Environmental LLC, priority 2023, published 2024).
Several values for one entry are separate records, joined by “and”; a condition that tells them apart may be missing. Identical values can stand only once.

Columns and labels:
[1] = tested on: nalidixic acid-resistant Salmonella Enterica serovar Typhimurium; experiment: Wing wash model: Salmonella counts in rinsate of experimentally contaminated broiler wings; assay type: cell-based
Procedure: As a non-limiting example, the efficacy of Sx on the reduction of nalidixic acid-resistant Salmonella spp. on experimentally contaminated broiler carcasses (using a wing wash model) was tested. Sx was tested at 100 ppm and 200 ppm, with or without lecithin and was compared with an untreated negative control group and peracetic Acid (PAA) at 200 ppm as a commercial comparator. […] Almost 0.6 to 3.0 log reduction has been observed in previous iterations. During those studies, the effectiveness of Sx was studied at different time intervals and fixed time interval. […] Whereas, based on literature and food safety inspection services (USDA) directive 7120.1, PAA has been recommended with the dose range of 50 ppm to 2000 ppm. Under field conditions, most of the establishments use 200 ppm as a whole carcass rinse. Therefore, in this iteration, Sx was compared with PAA at 200 ppm level. In this study, Sx was tested at 1.25% and 2.5% level which are equivalent to 100 ppm and 200 ppm of propionic acid concentration. Lecithin was added to the Sx solution at the rate of 0.02%. Lecithin is believed to enhance the cell wall penetration of propionic acid and isoamyl hexanoate leading to better antimicrobial activity.
For this study, a WHIRL-PAK® bag containing one pair of chicken wings was the experimental unit. On approximately day 47 of the broilers age, approximately 54 broilers were euthanized by severing the jugular vein after euthanization. The carcass was thoroughly washed using hot water. The feathers were removed using a mechanical plucker. The wings were separated from the whole carcass and preserved in a cooler containing ice. Each treatment group was represented by nine sample bags (replicates) containing one pair of wings. Three sample bags from each treatment group were pooled together and identified as first, second and third set as shown in Table 3.
To start with, eighteen pairs of wings were brought to the hood and sprayed with Salmonella typhimurium (Nalidixic Acid Resistant [NAR]) inoculum at the rate of 10 mL per pair. The carcasses were allowed to dry for 15 minutes. Following drying, eighteen pairs of wings were inserted into WHIRL-PAK bags at the rate of one pair per WHIRL-PAK bag. T1 bags were added with non-medicated, sterilized reverse osmosis (SRO) water at the rate of one liter per bag. T2-T6 bags were added with respective medicated, SRO water at the rate of one liter per bag. All the bags were incubated for 15 mins in a cooler containing ice cubes. After 15 minutes, the carcass in each bag was removed from the SRO water bag and inserted into a fresh WHIRL-PAK bag.
Approximately 100 mL of buffered peptone water was added into each bag and agitated for one minute. […]

[2] = tested on: range of target microorganisms; details: both in gas and MIC assays; cited from earlier work

Row | Structure (SMILES) | Salmonella count (MPN) ([1]; Salmonella count per mL of wing wash rinsate after 15 mins incubation in medicated SRO water, mean of 9 replicates, concentration in label) | MPN (Actual numbers) ([1]; Salmonella count per mL of wing wash rinsate after 15 mins incubation, concentration in label) | % Reduction ([1]; decrease of Salmonella count compared to untreated control, 15 mins incubation, P<0.05) | Log Reduction ([1]; overall reduction of salmonella count compared to untreated control, 15 mins incubation) [Log] | Bioactivity by itself [2]
1 | CC(=O)OO [PAA 200 ppm, peracetic Acid] | 6.51E+05±5.68E+05 cfu/mL and 6.51E+05 cfu/mL | 650,694 | 84% and 84.55% | 0.77 | 
2 | CC(C)C(=O)O [isobutyric acid] |  |  |  |  | some limited bioactivity
